Laboratory results: patent US20210220355A1, “ANTITUMOR AGENT FOR ACUTE MYELOID LEUKEMIA” (FUJIFILM Corporation, priority 2018, published 2021)

Legend:
[1] = tested on: FLT3-ITD+D698N-expressing 32D cell; experiment: inhibitory effect on proliferation of mutant FLT3-expressing 32D cell (intracellular ATP level); type: cell-based; settings: for IC50: 32D, 72 h, Mutation type FLT3-ITD + D698N, day 3, ATP level, read-out: Effect determination (IC50 value class), proliferation
Experimental: (§1) 32D cell line expressing FLT3 gene mutations (FLT3-ITD+D698N, +N676T) found according to the random mutagenesis analysis method was cultured for a predetermined period of time (setting: 37° C. and 5% CO2, steam saturated), and then the cells were plated on a 384-well plate at a cell concentration of 299 cells/well. The random mutagenesis analysis method was carried out according to the following reference document.
(§2) Each of the test substances was dissolved in dimethyl sulfoxide (DMSO) to prepare a DMSO solution containing 20 mmol/L of the test substance. After serially diluting with DMSO and further diluting with a medium containing 10% serum, each of the test substance solutions having a concentration 10 times the final treatment concentration was prepared. […] In addition, a group (a positive control group) in which only DMSO containing no test substance was added to a well in which cells were plated and a group (a negative control group) in which only DMSO containing no test substance was added to a well in which only the medium was added were prepared. On day 3 after adding the test substance solution, the intracellular ATP level was measured with “Cell” ATP Assay reagent Ver. 2 (manufactured by TOYO B-Net Co., Ltd.) to evaluate cell viability.
(§3) The suppression rate was determined by assuming that the amount of luminescence signal in the negative control group corresponded to the suppression of cell viability by 100% and the amount of luminescence signal in the positive control group corresponded to the suppression of cell viability by 0%. […] 3 (manufactured by ITOCHU Techno-Solutions Corporation).

[2] = tested on: FLT3-ITD+N676T-expressing 32D cell; experiment: as above; type: cell-based; settings: for IC50: 32D, 72 h, Mutation type FLT3-ITD + N676T, day 3, ATP level, read-out: Effect determination (IC50 value class), proliferation
Experimental: as §1, §2, §3

[3] = tested on: FLT3-ITD-expressing 32D cell; experiment: as above; type: cell-based; settings: 72 h, Mutation type FLT3-ITD, day 3, ATP level, read-out: Effect determination (IC50 value class), proliferation
Experimental: as §1, §2, §3

[4] = tested on: FLT3 phosphorylation; experiment: plasma inhibitory activity (PIA) test on patient plasma samples; type: cell-based, human
Experimental: For 7 patients (patients 1 to 7) who were repeatedly administered with 10 mg of Compound A1 one time a day or 20 mg one time a day in a clinical test involving patients with acute myeloid leukemia, in-plasma concentrations of Compound A1 were measured before administration and after 4 hours after the administration on day 1, day 8, day 15, and day 22 of the first cycle (one cycle is 28 days) and on day 1 of the second cycle, and on the end day of the administration of Compound A1. In addition, a plasma inhibitory activity (PIA) test (Blood, 2006, Vol. 108, p 3477 to 3483) was carried out using plasma samples from the same patients at the same time points. A graph showing a correlation between the in-plasma concentrations and the PIA test results is shown FIG. 1. In FIG. 1, open circles, open rectangles, open triangles, filled circles, filled triangles, filled rectangles, and cross symbols indicate the results of patients 1 to 7, respectively.

[5] = tested on: patients with acute myeloid leukemia; experiment: clinical test, repeated QD administration to patients with acute myeloid leukemia (side effects); type: in vivo, human; settings: AML patients, 10 mg or 20 mg one time a day
[6] = tested on: acute myeloid leukemia; experiment: BID administration test in a patient with acute myeloid leukemia (bone marrow examination); type: in vivo, human; settings: one AML patient, 75 mg BID before a meal, day 29 of administration; 55% before administration
Experimental: A patient with acute myeloid leukemia is subjected to the BID administration of Compound A of 25 to 225 mg per administration before having a meal two times a day. A preferred effect (for example, a decrease in the proportion of blast cells in the bone marrow, or a curing effect equal to or higher than PR) is confirmed. The specific doses per administration are 50 mg, 75 mg, 100 mg, or 150 mg. Patients have received chemotherapy with cytarabine, daunorubicin, idarubicin, and the like as preliminary curing, and some patients have not reached CR, CRi, CRp, or PR by preliminary curing. The curing effect is determined by the following criteria. The bone marrow puncture sample is evaluated and determined according to the following criteria. Complete Response (CR): a state in which […], and the neutrophil count and the platelet count are respectively 1,000 counts/μL or more and 100,000 counts/μL or more. Complete Response with incomplete platelet recovery ([…]): a state in which myeloblasts are 5% or less and the neutrophil count is 1,000 counts/μL or more, but the platelet count is 100,000 counts/μL or less. Complete Response with incomplete hematological recovery (CRi): a state in which myeloblasts are 5% or less and there is no blood transfusion dependency, but the neutrophil count is 1,000 counts/μL or less. […]

`CCc1nc(C(N)=O)c(Nc2ccc(N3CCC(N4CCN(C)CC4)CC3)c(OC)c2)nc1NC1CCOCC1` [Gilteritinib, 6-ethyl-3-[3-methoxy-4-[4-(4-methylpiperazin-1-yl)piperidin-1-yl]anilino]-5-(oxan-4-ylamino) pyrazine-2-carboxamide, reference compound] was tested, and the IC50 [1] was 10 to 50 nM, the IC50 [2] was 5 to 10 nM and the IC50 [3] was 1 to 5 nM.

With `CCCNc1nc(Nc2ccc(C#N)cc2)ncc1C#CCCCNC(=O)[C@H](C)N(C)C(=O)/C=C/CN(C)C` [Compound A1, (S,E)-N-(1-((5-(2-((4-cyanophenyl)amino)-4-(propylamino)pyrimidin-5-yl)-4-pentyn-1-yl)amino)-1-oxopropan-2-yl)-4-(dimethylamino)-N-methyl-2-butenamide] the “in-plasma concentration at which the phosphorylation inhibition rate reaches 100%” value ([4]; based on the regression line of FIG. 1, 7 AML patients given 10 mg or 20 mg one time a day) was “exceeds 30 ng/mL”, the “in-plasma concentration required to exhibit a remarkable FLT3 phosphorylation inhibition rate” value ([4]; concluded from PIA test results of FIG. 1) was at least 40 ng/mL and the serious side effects [5] was “No serious side effects were observed”. For the same compound, the “proportion of blast cells in the bone marrow” value [6] was 18%, the IC50 [1] was 0.5 to 1 nM and the “inhibitory effect on proliferation, in words” value ([1]; FLT3-ITD+D698N-expressing 32D cell, compared with FLT3-ITD-expressing 32D cell) was “strong inhibitory effect”. For the same compound, the IC50 [2] was 0.5 to 1 nM, the “inhibitory effect on proliferation, in words” value ([2]; FLT3-ITD+N676T-expressing 32D cell) was “strong inhibitory effect” and the IC50 [3] was 0.1 to 0.5 nM.
